Measurements taken from patent US9075070B2, “HTS fluorescence polarization assay for inhibitors of Keap1-Nrf2 interaction” (RUTGERS, THE STATE UNIVERSITY OF NEW JERSEY, priority 2011, dated 2015).

Molecular target: human Keap1 Kelch domain (Homo sapiens, UniProt Q14145)
Experiment: FP binding assay: titration of fluorescently labeled Nrf2 peptide probes with Keap1 Kelch domain
Settings: difference in the free and the bound anisotropy of the FITC-labeled peptide

human Keap1 Kelch domain, sequence (Q14145 with tags, fused parts or gaps): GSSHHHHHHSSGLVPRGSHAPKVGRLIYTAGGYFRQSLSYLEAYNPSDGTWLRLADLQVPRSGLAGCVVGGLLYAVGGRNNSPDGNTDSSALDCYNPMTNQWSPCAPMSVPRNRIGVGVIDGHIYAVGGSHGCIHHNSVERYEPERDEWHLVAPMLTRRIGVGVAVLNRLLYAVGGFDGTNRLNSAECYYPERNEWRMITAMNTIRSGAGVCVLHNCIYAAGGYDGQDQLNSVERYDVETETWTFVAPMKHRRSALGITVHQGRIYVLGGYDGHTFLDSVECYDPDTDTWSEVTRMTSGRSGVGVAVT

CC(C)C[C@H](NC(=O)[C@H](Cc1ccccc1)NC(=O)[C@H](CCC(=O)O)NC(=O)CNC(=O)[C@@H](NC(=O)[C@H](CCC(=O)O)NC(=O)[C@H](CCC(=O)O)NC(=O)[C@H](CC(=O)O)NC(=O)[C@H](CC(C)C)NC(=O)[C@H](CCC(N)=O)NC(=O)[C@H](CC(C)C)NC(=O)[C@H](CCC(N)=O)NC(=O)[C@H](C)NC(=O)[C@H](Cc1ccccc1)NC(=S)Nc1ccc2c(c1)C(=O)OC21c2ccc(O)cc2Oc2cc(O)ccc21)[C@@H](C)O)C(=O)O [FITC-14mer Nrf2]
Dynamic Range (ΔmA): 64.2 mA
